Data published in PubChem BioAssay AID493105 (The Scripps Research Institute Molecular Screening Center, 2011).
Calls of active or inactive are those of the source. How the calls were made is not given here.

Legend:
Assay in all cases: LYPLA1 and LYPLA2 inhibitors, biochemical, gel-based ABPP, fluorescence, recombinant and endogenous enzyme (AID 493105)
[1] = tested on: emLYPLA2; details: fluorescent probe labeling, membrane fraction, at 20 µM, hits give high values
[2] = tested on: rhLYPLA1; details: fluorescent probe labeling, soluble fraction, at 20 µM, hits give high values
[3] = tested on: emLYPLA1; details: fluorescent probe labeling, membrane fraction, at 20 µM, hits give high values
[4] = tested on: rhLYPLA2; details: fluorescent probe labeling, membrane fraction, at 20 µM, hits give high values

CC1CCc2c(sc(NC(=O)CN3CCN(C(=O)c4ccco4)CC3)c2C#N)C1 (centres undefined)
inhibition [1]: 0% (inactive) | inhibition [2]: 16% (inactive) | inhibition [3]: 3% (inactive) | inhibition [4]: 0% (inactive)

COc1ccc(/C=C2/Sc3ccc(C(=O)NCCCN4CCOCC4)cc3NC2=O)cc1OC
inhibition [1]: 0% (inactive) | inhibition [2]: 0% (inactive) | inhibition [3]: 5% (inactive) | inhibition [4]: 1% (inactive)

O=C(Nc1ccc2oc(-c3cccnc3)nc2c1)c1ccc2c(c1)OCCO2
inhibition [1]: 0% (inactive) | inhibition [2]: 0% (inactive) | inhibition [3]: 0% (inactive) | inhibition [4]: 0% (inactive)

O=C(CCN1CCN(c2ccc([N+](=O)[O-])cc2)CC1)c1ccc(Cl)cc1
inhibition [1]: 1% (inactive) | inhibition [2]: 0% (inactive) | inhibition [3]: 9% (inactive) | inhibition [4]: 6% (inactive)

O=C(CN1CCN(c2ccccn2)CC1)Nc1cc(C(F)(F)F)ccc1Cl
inhibition [1]: 9% (inactive) | inhibition [2]: 36% | inhibition [3]: 0% (inactive) | inhibition [4]: 6% (inactive)

Clc1cccc(N2CCN(CCNc3nc4ccccc4n4cnnc34)CC2)c1
inhibition [1]: 0% (inactive) | inhibition [2]: 0% (inactive) | inhibition [3]: 1% (inactive) | inhibition [4]: 0% (inactive)

CC(=O)c1ccc(N2CCN(C(=O)c3cccc(Oc4ccccc4)c3)CC2)cc1
inhibition [1]: 0% (inactive) | inhibition [2]: 29% (inactive) | inhibition [3]: 0% (inactive) | inhibition [4]: 12% (inactive)

COc1ccc(-n2nc(C(=O)NCC(=O)N3CCN(c4cccc(Cl)c4)CC3)c3ccccc3c2=O)c(OC)c1
inhibition [1]: 83% | inhibition [2]: 0% (inactive) | inhibition [3]: 16% (inactive) | inhibition [4]: 61%

CCN(CC)S(=O)(=O)c1cccc(-c2nnc(SCCOc3ccccc3)o2)c1
inhibition [1]: 17% (inactive) | inhibition [2]: 8% (inactive) | inhibition [3]: 0% (inactive) | inhibition [4]: 19% (inactive)

CC(=O)N1CCC2(CC1)C/C(=N\NC(=S)Nc1ccccc1C)c1cc(O)ccc1O2
inhibition [1]: 5% (inactive) | inhibition [2]: 0% (inactive) | inhibition [3]: 2% (inactive) | inhibition [4]: 3% (inactive)

COc1cc(/C=N/N2CCN(Cc3ccc(Cl)cc3)CC2)cc(Br)c1O
inhibition [1]: 0% (inactive) | inhibition [2]: 31% | inhibition [3]: 0% (inactive) | inhibition [4]: 0% (inactive)

C/C(=C\c1ccccc1)CN1CCN(c2cccc(Cl)c2)CC1
inhibition [1]: 0% (inactive) | inhibition [2]: 0% (inactive) | inhibition [3]: 0% (inactive) | inhibition [4]: 0% (inactive)

CC(=O)N1CCN(c2ccc(NC(=S)NC(=O)c3ccc(C)c([N+](=O)[O-])c3)cc2)CC1
inhibition [1]: 14% (inactive) | inhibition [2]: 17% (inactive) | inhibition [3]: 0% (inactive) | inhibition [4]: 5% (inactive)

CCC(=O)N1CCN(c2ccc(NC(=S)NC(=O)c3ccc(OC)c([N+](=O)[O-])c3)cc2)CC1
inhibition [1]: 40% | inhibition [2]: 25% (inactive) | inhibition [3]: 13% (inactive) | inhibition [4]: 21% (inactive)

O=C(COc1ccc(Cl)cc1)N1CCN(c2ccc([N+](=O)[O-])c(N3CCOCC3)c2)CC1
inhibition [1]: 0% (inactive) | inhibition [2]: 47% | inhibition [3]: 0% (inactive) | inhibition [4]: 3% (inactive)

Clc1ccc(C(c2ccc(Cl)cc2)n2cc[n+](CC(OCc3ccc(Cl)cc3Cl)c3ccc(Cl)cc3Cl)c2)cc1 (centres undefined)
inhibition [1]: 0% (inactive) | inhibition [2]: 0% (inactive) | inhibition [3]: 0% (inactive) | inhibition [4]: 0% (inactive)

O=C(NCCNC(=O)c1cc(OCC(F)(F)F)ccc1OCC(F)(F)F)Nc1cccc(C(F)(F)F)c1
inhibition [1]: 7% (inactive) | inhibition [2]: 57% | inhibition [3]: 12% (inactive) | inhibition [4]: 0% (inactive)

COc1ccc(C(=O)NC(=S)Nc2ccc(N3CCOCC3)cc2)cc1Cl
inhibition [1]: 8% (inactive) | inhibition [2]: 0% (inactive) | inhibition [3]: 0% (inactive) | inhibition [4]: 1% (inactive)

N#Cc1ccccc1OCCCN1CCC(Cc2ccccc2)CC1
inhibition [1]: 9% (inactive) | inhibition [2]: 21% (inactive) | inhibition [3]: 11% (inactive) | inhibition [4]: 0% (inactive)

O=C(COc1ccc(Br)cc1)N1CCN(c2ccc([N+](=O)[O-])c(N3CCCCC3)c2)CC1
inhibition [1]: 3% (inactive) | inhibition [2]: 45% | inhibition [3]: 0% (inactive) | inhibition [4]: 7% (inactive)

O=C(c1ccc2n[nH]nc2c1)N1CCN(c2ccc(C(F)(F)F)cn2)CC1
inhibition [1]: 57% | inhibition [2]: 70% | inhibition [3]: 90% | inhibition [4]: 32%
